From ChEMBL document CHEMBL1142763, “Dibenzodioxocinones--a new class of CETP inhibitors” (Bioorg Med Chem Lett, 2005)

Columns and labels:
[1] = molecular target: T1, Cholesteryl ester transfer protein (Homo sapiens, UniProt P11597); experiment: Inhibitory concentration against Cholesterol ester transfer protein (CETP) in CETP fluorescence assay
T1 sequence (P11597 whole entry): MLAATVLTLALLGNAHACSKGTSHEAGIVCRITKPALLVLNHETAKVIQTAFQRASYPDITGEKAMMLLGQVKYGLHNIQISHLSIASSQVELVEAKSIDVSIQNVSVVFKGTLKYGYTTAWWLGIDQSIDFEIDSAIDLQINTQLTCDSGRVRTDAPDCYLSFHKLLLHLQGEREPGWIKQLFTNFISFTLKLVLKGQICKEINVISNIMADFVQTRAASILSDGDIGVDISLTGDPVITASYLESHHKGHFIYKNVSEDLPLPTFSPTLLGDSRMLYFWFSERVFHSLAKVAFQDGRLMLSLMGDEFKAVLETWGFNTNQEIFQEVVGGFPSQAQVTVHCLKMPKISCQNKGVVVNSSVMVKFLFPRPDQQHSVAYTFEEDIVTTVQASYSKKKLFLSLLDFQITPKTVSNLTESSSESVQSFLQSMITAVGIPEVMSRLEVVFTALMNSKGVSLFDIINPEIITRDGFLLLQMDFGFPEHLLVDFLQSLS

[2] = (§1) Half life period […] determined in rat plasma; format: ADME, cell-free
[3] = as §1; format: ADME, organism-based

| IC50 [1] [nM] | half-life [2] [h] | Structure (SMILES) | half-life [3] [h] |
| --- | --- | --- | --- |
| 4000 |  | COc1c(C(O)C(C)C)ccc2c1C(=O)Oc1cc(C)cc(OCCC(C)C)c1O2 (racemic) |  |
| 200 | 0.64 | COc1c([C@@H](O)CC(C)C)ccc2c1C(=O)Oc1cc(C)cc(OC(=O)C3(C)CC4C=CC3C4)c1O2 (some centres not stated) |  |
| 200 | 4.2 | COc1c([C@@H](O)CC(C)C)ccc2c1C(=O)Oc1cc(C)cc(OC(=O)C3(C)C4CCC3CC4)c1O2 (some centres not stated) |  |
| 60 | > 3 | COc1c([C@@H](O)CC(C)C)ccc2c1C(=O)Oc1c(Cl)c(C)c(Br)c(OC(=O)C3(C)C4CCC3CC4)c1O2 (some centres not stated) |  |
| 15 |  | CCc1c(C)c(Cl)c2c(c1OC(=O)C1(C)C3CCC1CC3)Oc1ccc([C@@H](O)CC(C)(C)C)c(OC)c1C(=O)O2 (some centres not stated) |  |
| 600 |  | COc1c([C@@H](O)CC(C)C)ccc2c1C(=O)Oc1cc(C)cc(OC(=O)C3CCCC3)c1O2 |  |
| 800 |  | COc1c([C@@H](O)CC(C)C)ccc2c1C(=O)Oc1cc(C)cc(OC(=O)C(C)(C)C)c1O2 | < 0.1 |
| 700 |  | COc1c([C@@H](O)CC(C)C)ccc2c1C(=O)Oc1cc(C)cc(OS(=O)(=O)C(C)C)c1O2 |  |
| 2000 |  | COc1c(C(O)CC(C)C)ccc2c1C(=O)Oc1cc(C)cc(OCCC(C)C)c1O2 (racemic) |  |
| 200 | < 0.1 | COc1c([C@@H](O)CC(C)C)ccc2c1C(=O)Oc1cc(C)cc(OC(=O)C3CC4C=CC3C4)c1O2 (some centres not stated) |  |
| 1500 |  | COc1c([C@@H](O)CC(C)C)ccc2c1C(=O)Oc1cc(C)cc(OCC3CCCC3)c1O2 |  |
| 6000 |  | COc1c([C@@H](O)CC(C)C)ccc2c1C(=O)Oc1cc(C)cc(OS(=O)(=O)c3c(F)cc(F)cc3F)c1O2 |  |
| 4000 |  | CCCCCS(=O)(=O)Oc1cc(C)cc2c1Oc1ccc([C@@H](O)CC(C)C)c(OC)c1C(=O)O2 |  |
| 32 |  | COc1c([C@@H](O)CC(C)(C)C)ccc2c1C(=O)Oc1c(Cl)c(C)c(Br)c(OC(=O)C3(C)C4CCC3CC4)c1O2 (some centres not stated) |  |
| 10000 |  | COc1c([C@@H](O)CC(C)C)ccc2c1C(=O)Oc1cc(C)cc(OS(=O)(=O)C(F)(F)F)c1O2 |  |
| 30 | > 3 | COc1c([C@@H](O)CC(C)C)ccc2c1C(=O)Oc1c(Cl)c(C)c(C)c(OC(=O)C3(C)C4CCC3CC4)c1O2 (some centres not stated) |  |
| 13000 |  | COc1c([C@@H](O)CC(C)C)ccc2c1C(=O)Oc1cc(C)cc(OCc3ccccc3)c1O2 |  |
| 10000 |  | COc1c(C(O)CC2CC2)ccc2c1C(=O)Oc1cc(C)cc(OCCC(C)C)c1O2 (racemic) |  |
| 30 |  | COc1c([C@@H](O)CC(C)(C)C)ccc2c1C(=O)Oc1c(Cl)c(C)c(C)c(OC(=O)C3(C)C4CCC3CC4)c1O2 (some centres not stated) |  |
| 1500 |  | COc1c(C(O)CC(C)(C)C)ccc2c1C(=O)Oc1cc(C)cc(OCCC(C)C)c1O2 (racemic) |  |

| Structure (SMILES) | IC50 [1] [nM] | half-life [2] [h] | half-life [3] [h] |
| --- | --- | --- | --- |
| COc1c([C@@H](O)CC(C)C)ccc2c1C(=O)Oc1cc(C)cc(OC(=O)[N+]34CCC(CC3)C4)c1O2 | 200 |  | 3.9 |
| COc1c([C@@H](O)CC(C)C)ccc2c1C(=O)Oc1cc(C)cc(O)c1O2 | > 20000 |  |  |
| COc1c([C@@H](O)CC(C)C)ccc2c1C(=O)Oc1cc(C)cc(OC(=O)N3CC4CCC4C3)c1O2 (some centres not stated) | 400 |  |  |
| COc1c(C(O)CC2CCCCC2)ccc2c1C(=O)Oc1cc(C)cc(OCCC(C)C)c1O2 (racemic) | > 20000 |  |  |
| CCN(CC)C(=O)Oc1cc(C)cc2c1Oc1ccc([C@@H](O)CC(C)C)c(OC)c1C(=O)O2 | 3000 |  |  |
| COc1c([C@@H](O)CC(C)C)ccc2c1C(=O)Oc1cc(C)cc(OC(=O)N(C(C)C)C(C)C)c1O2 | 700 |  | > 5 |
| COc1c([C@@H](O)CC(C)C)ccc2c1C(=O)Oc1cc(C)cc(OC(=O)N3CCCC3)c1O2 | 800 |  | 2.9 |
| COc1c(C(O)CCC(C)C)ccc2c1C(=O)Oc1cc(C)cc(OCCC(C)C)c1O2 (racemic) | > 20000 |  |  |
